# Reference: patent US7041851B2, “Fluorinated phenyl thiophenyl derivatives and their use for imaging serotonin transporters” (The Trustees of the University of Pennsylvania, priority 2002, dated 2006)
# Where “and” joins values, the source holds several entries; their conditions need not be identical. Equal values may be shown once.
# Experiment: Organ distribution and brain regional uptake of [18F]ACF in rats
smiles,measurement,setting,value
CN(C)Cc1ccccc1Sc1cc([18F])c(Cl)cc1N [[^18F]ACF],Organ distribution: Brain,30 min after iv injection,1.28 ± 0.14 % dose/organ
same,Organ distribution: Heart,30 min after iv injection,0.18 ± 0.02 % dose/organ
same,Organ distribution: Kidney,30 min after iv injection,2.64 ± 0.79 % dose/organ
same,Organ distribution: Liver,30 min after iv injection,15.20 ± 1.20 % dose/organ
same,Organ distribution: Lung,30 min after iv injection,1.76 ± 0.20 % dose/organ
same,Organ distribution: Muscle,30 min after iv injection,10.70 ± 1.68 % dose/organ
same,Organ distribution: Skin,30 min after iv injection,6.51 ± 0.66 % dose/organ
same,Organ distribution: Spleen,30 min after iv injection,0.29 ± 0.09 % dose/organ
same,Ratio to Cerebellum: Cerebellum,30 min after iv injection,1.00 ± 0.00
same,Ratio to Cerebellum: Cortex,30 min after iv injection,1.69 ± 0.20
same,Ratio to Cerebellum: Hippocampus,30 min after iv injection,1.89 ± 0.24
same,Ratio to Cerebellum: Hypothalamus,30 min after iv injection,2.29 ± 0.06
same,Ratio to Cerebellum: Remainder,30 min after iv injection,1.80 ± 0.11
same,Ratio to Cerebellum: Striatum,30 min after iv injection,2.06 ± 0.19
same,Regional brain distribution: Cerebellum,30 min after iv injection,0.37 ± 0.07 % dose/g
same,Regional brain distribution: Cortex,30 min after iv injection,0.62 ± 0.07 % dose/g
same,Regional brain distribution: Hippocampus,30 min after iv injection,0.70 ± 0.06 % dose/g
same,Regional brain distribution: Hypothalamus,30 min after iv injection,0.85 ± 0.14 % dose/g
same,Regional brain distribution: Remainder,30 min after iv injection,0.67 ± 0.09 % dose/g
same,Regional brain distribution: Striatum,30 min after iv injection,0.76 ± 0.08 % dose/g
same,Organ distribution: Blood,60 min after iv injection,4.65 ± 0.46 % dose/organ
same,Organ distribution: Bone,60 min after iv injection,0.08 ± 0.02 % dose/organ
same,Organ distribution: Brain,60 min after iv injection,0.69 ± 0.09 % dose/organ
same,Organ distribution: Heart,60 min after iv injection,0.11 ± 0.01 % dose/organ
same,Organ distribution: Kidney,60 min after iv injection,1.38 ± 0.25 % dose/organ
same,Organ distribution: Liver,60 min after iv injection,10.30 ± 2.50 % dose/organ
same,Organ distribution: Lung,60 min after iv injection,0.73 ± 0.08 % dose/organ
same,Organ distribution: Muscle,60 min after iv injection,7.69 ± 0.29 % dose/organ
same,Organ distribution: Skin,60 min after iv injection,5.97 ± 1.64 % dose/organ
same,Organ distribution: Spleen,60 min after iv injection,0.13 ± 0.02 % dose/organ
same,Ratio to Cerebellum: Cerebellum,60 min after iv injection,1.00 ± 0.00
same,Ratio to Cerebellum: Cortex,60 min after iv injection,2.10 ± 0.47
same,Ratio to Cerebellum: Hippocampus,60 min after iv injection,2.91 ± 0.64
same,Ratio to Cerebellum: Hypothalamus,60 min after iv injection,3.53 and 3.53 ± 0.33
same,Ratio to Cerebellum: Remainder,60 min after iv injection,2.56 ± 0.44
same,Ratio to Cerebellum: Striatum,60 min after iv injection,2.88 ± 0.52
same,Regional brain distribution: Cerebellum,60 min after iv injection,0.15 ± 0.03 % dose/g
same,Regional brain distribution: Cortex,60 min after iv injection,0.33 ± 0.13 % dose/g
same,Regional brain distribution: Hippocampus,60 min after iv injection,0.45 ± 0.13 % dose/g
same,Regional brain distribution: Hypothalamus,60 min after iv injection,0.54 ± 0.13 % dose/g
same,Regional brain distribution: Remainder,60 min after iv injection,0.39 ± 0.03 % dose/g
same,Regional brain distribution: Striatum,60 min after iv injection,0.45 ± 0.14 % dose/g
same,Organ distribution: Blood,120 min after iv injection,3.20 ± 0.57 % dose/organ
same,Organ distribution: Bone,120 min after iv injection,0.28 ± 0.06 % dose/organ
same,Organ distribution: Brain,120 min after iv injection,0.21 ± 0.03 % dose/organ
same,Organ distribution: Heart,120 min after iv injection,0.06 ± 0.01 % dose/organ
same,Organ distribution: Kidney,120 min after iv injection,0.78 ± 0.15 % dose/organ
same,Organ distribution: Liver,120 min after iv injection,5.90 ± 1.03 % dose/organ
same,Organ distribution: Lung,120 min after iv injection,0.32 ± 0.06 % dose/organ
same,Organ distribution: Muscle,120 min after iv injection,4.02 ± 1.22 % dose/organ
same,Organ distribution: Skin,120 min after iv injection,2.61 ± 0.17 % dose/organ
same,Organ distribution: Spleen,120 min after iv injection,0.06 ± 0.02 % dose/organ
same,Ratio to Cerebellum: Cerebellum,120 min after iv injection,1.00 ± 0.00
same,Ratio to Cerebellum: Cortex,120 min after iv injection,1.77 ± 0.04
same,Ratio to Cerebellum: Hippocampus,120 min after iv injection,2.67 ± 0.15
same,Ratio to Cerebellum: Hypothalamus,120 min after iv injection,3.23 ± 0.21
same,Ratio to Cerebellum: Remainder,120 min after iv injection,2.34 ± 0.09
same,Ratio to Cerebellum: Striatum,120 min after iv injection,2.97 ± 0.16
same,Regional brain distribution: Cerebellum,120 min after iv injection,0.05 ± 0.01 % dose/g
same,Regional brain distribution: Cortex,120 min after iv injection,0.09 ± 0.01 % dose/g
same,Regional brain distribution: Hippocampus,120 min after iv injection,0.14 ± 0.02 % dose/g
same,Regional brain distribution: Hypothalamus,120 min after iv injection,0.17 ± 0.01 % dose/g
same,Regional brain distribution: Remainder,120 min after iv injection,0.12 ± 0.01 % dose/g
same,Regional brain distribution: Striatum,120 min after iv injection,0.15 ± 0.02 % dose/g
same,Organ distribution: Blood,240 min after iv injection,2.33 ± 0.34 % dose/organ
same,Organ distribution: Bone,240 min after iv injection,0.27 ± 0.07 % dose/organ
same,Organ distribution: Brain,240 min after iv injection,0.06 ± 0.01 % dose/organ
same,Organ distribution: Heart,240 min after iv injection,0.04 ± 0.01 % dose/organ
same,Organ distribution: Kidney,240 min after iv injection,0.51 ± 0.07 % dose/organ
same,Organ distribution: Liver,240 min after iv injection,3.55 ± 0.35 % dose/organ
same,Organ distribution: Lung,240 min after iv injection,0.15 ± 0.02 % dose/organ
same,Organ distribution: Muscle,240 min after iv injection,2.08 ± 0.05 % dose/organ
same,Organ distribution: Skin,240 min after iv injection,1.53 ± 0.17 % dose/organ
same,Organ distribution: Spleen,240 min after iv injection,0.03 ± 0.00 % dose/organ
same,Ratio to Cerebellum: Cerebellum,240 min after iv injection,1.00 ± 0.00
same,Ratio to Cerebellum: Cortex,240 min after iv injection,1.52 ± 0.21
same,Ratio to Cerebellum: Hippocampus,240 min after iv injection,1.99 ± 0.23
same,Ratio to Cerebellum: Hypothalamus,240 min after iv injection,2.37 and 2.37 ± 0.23
same,Ratio to Cerebellum: Remainder,240 min after iv injection,1.58 ± 0.13
same,Ratio to Cerebellum: Striatum,240 min after iv injection,2.35 ± 0.05
same,Regional brain distribution: Cerebellum,240 min after iv injection,0.02 ± 0.00 % dose/g
same,Regional brain distribution: Cortex,240 min after iv injection,0.03 ± 0.01 % dose/g
same,Regional brain distribution: Hippocampus,240 min after iv injection,0.04 ± 0.01 % dose/g
same,Regional brain distribution: Hypothalamus,240 min after iv injection,0.05 ± 0.00 % dose/g
same,Regional brain distribution: Remainder,240 min after iv injection,0.03 ± 0.00 % dose/g
same,Regional brain distribution: Striatum,240 min after iv injection,0.05 ± 0.00 % dose/g
same,Time of peak specific uptake in the hypothalamus region,after injection,60 to 120 min
same,Initial brain uptake,iv,1.71±0.45 % dose/g
